Assay results as given in US20200360318A1, “COMPOSITIONS AND METHODS FOR INCREASING THE POLLINATION PERFORMANCE OF BEES” (Beeflow Corporation, priority 2019, published 2020).

Experiment: ABA content in fifth instar larvae of colonies fed ABA syrup
Type: in vivo, honey bees
Settings: 10 μM ABA in sucrose syrup (2:1); fifth instar larvae (L5), two months after starting treatment
Experimental: ABA was added to sucrose syrup (2:1, sucrose:water) to achieve a concentration of 10 μM ABA. Two groups of small colonies of honey bees were used to test if the compound was reaching the bee larvae. One group of colonies was exposed to the solution by way of adding the solution to feed the bees in the beehive, while the other was not. In order to corroborate that the ABA supplemented in the syrup actually reached the larvae, the ABA content was measured in fifth instar larvae (L5) two months after starting treatment.

SMILES: CC1=CC(=O)CC(C)(C)[C@@]1(O)/C=C/C(C)=C\C(=O)O [ABA, (2Z,4E)-5-[(1S)-1-hydroxy-2,6,6-trimethyl-4-oxocyclohex-2-en-1-yl]-3-methylpenta-2,4-dienoic acid]
- concentration of ABA in larvae compared to the control colony: 28 x
